This is an account of results in a melting point compilation (Tetko et al.).

Regarding `CC(C)(C)OC(=O)N1CCCN(c2cccc(O)c2)CC1`, the melting point was in the range of 143 to 144 °C.

As to `COc1ccccc1-c1nnc2n1NC(c1ccc(N(C)C)cc1)S2` (configuration not stated), the melting point was 228 to 230 °C.

Take `c1ccc(Cc2nc3ccccc3[nH]2)cc1`: the melting point was 187 °C.

On to `CCC(=O)c1cc(F)cc(F)c1`, for which the melting point amounted to 26 °C.

`CC=CC=CC`: the melting point is -79 °C.

Consider `O=C1OC(c2ccccc2)=N/C1=C/c1cc(/C=C2/N=C(c3ccccc3)OC2=O)c([N+](=O)[O-])cc1[N+](=O)[O-]`, for which the melting point was 266 °C.

Regarding `O=C(O)Cc1cccc(F)c1F`, the melting point came out at 118 °C.

Consider `Cc1cc(C)n2nc(N)c(/N=N/c3cccnc3)c2n1`, for which the melting point was found to be 245 °C.

Molecule `Clc1cc(Cl)c2cc(Cl)cc(Cl)c2c1` gave a melting point of 180 °C.

Molecule `O=S(=O)(Cl)c1cccc(Cl)c1` yielded a melting point of 21 °C.

Regarding `Fc1c(CBr)cccc1C(F)(F)F`, the melting point was found to be 48 °C.

As for `O=[N+]([O-])c1ccccc1-c1onc(-c2ccccc2)c1-c1ccccc1`, the melting point worked out at 127 °C.

`Clc1cc2ccccc2c2ccccc12` came in with a melting point of 46 to 50 °C.

`CCC(=O)c1ccc(OCc2ccccc2)cc1` displayed a melting point of 100 °C.

`CC12CCC3C(C(=O)CC4CC(O)(C(Cl)(Cl)Cl)CCC43C)C1CCC2=O` (configuration not stated) yielded a melting point of 248 to 254 °C.

For the molecule `CCOC(=O)c1sc(SC)c2c1-c1ccccc1N(C)S2(=O)=O`, the melting point lay in the range of 190 to 193 °C.

`O=[N+]([O-])c1ccc(C=NN(c2ccccc2)P(=O)(N2CC2)N2CC2)cc1` registered a melting point of 150 °C.

With `COc1cc2c(cc1OC)C(CC#N)NCC2` (configuration not stated), the melting point fell in the range of 110 to 114 °C.

`CNC(C)C1C(O)CC2(C)C3CCC4C(C)(C)C(NC)CCC45CC35CCC12C` (configuration not stated) displayed a melting point of 207 °C.

For the molecule `O=[N+]([O-])c1cc[nH]n1`, the melting point lay within 173 to 175 °C.

Molecule `CSc1scnc1S(=O)(=O)c1ccc(C)cc1` displayed a melting point of 169 to 171 °C.

As for `Cc1c(Br)sc2ccc(Cl)cc12`, the melting point came out at 106 °C.

Molecule `O=C(Cl)c1ccccc1` had a melting point of -1 °C.

`COC(=O)c1ccc(C(=O)Cl)cc1` registered a melting point of 53 to 59 °C.

For the molecule `O=C(OC1OC(COCc2ccccc2)C(OCc2ccccc2)C1OCc1ccccc1)c1ccc([N+](=O)[O-])cc1` (configuration not stated), the melting point lay in the range of 92 to 94 °C.

Consider `CCCCCCCCNC`, for which the melting point is -11 °C.

Regarding `O=C1CCCC2Cc3ccccc3C(=O)C12` (configuration not stated), the melting point came to 79 °C.

On to `Cc1ccc(NC(=O)C(C)c2ccc(C)cc2)cc1` (configuration not stated), for which the melting point amounted to 105 °C.

With `NC(=O)c1ccc(-c2ccccn2)s1`, the melting point was in the range of 197 to 199 °C.

Regarding `C[C@@H]1C(=O)[C@H](C)[C@@H](c2ccc(Cl)cc2)O[C@H]1c1ccc(Cl)cc1`, the melting point was found to be 190 °C.

For `c1ccc2c(c1)[nH]c1cnccc12`, the melting point fell in the range of 199 to 201 °C.

Molecule `COc1ccc(-c2ccccc2)cc1NC(=O)C(F)(F)C(F)(F)C(F)(F)C(F)(F)C(F)(F)C(F)(F)C(F)(F)C(F)(F)F` came in with a melting point of 118 °C.

Turning to `Cc1ccc(C(=O)O)cc1Br`, the melting point is 208 °C.

`O=C(O)Cc1ccccc1CC(=O)O` yielded a melting point of 151 °C.

`CCCCCCCOc1ccc(N=[N+]([O-])c2ccc(OCCCCCCC)cc2)cc1`: the melting point lay within 73 to 122 °C.

`Cc1nn(-c2ccccc2)c(Cl)c1C=O` gave a melting point of 144 to 148 °C.

Molecule `C=CCn1c(S)nnc1CNC(=O)OC(C)(C)C` yielded a melting point of 150 to 153 °C.

As to `O=C1C=CC(=O)c2c(O)ccc(O)c21`, the melting point amounted to 237 °C.

As for `C[Si](C)(Cl)C(Cl)Cl`, the melting point was -48 °C.

`OC1C(Cl)(Cl)CCCC1(Cl)Cl` registered a melting point of 55 °C.

Consider `O=C(O)CC1CCCCC1`, for which the melting point amounted to 33 °C.

Turning to `NCc1ccc(-n2cccn2)cc1`, the melting point was in the range of 75 to 78 °C.

For orientation: melting point means the temperature of the solid-liquid transition.
